Measured values as given in patent publication US11851426B2, “Bicyclic amines as CDK2 inhibitors” (Incyte Corporation, priority 2019, dated 2023).

target: CDK2/Cyclin E1 (Homo sapiens (Human), UniProt P24941); assay: CDK2/Cyclin E1 HTRF enzyme activity assay; type: biochemical; conditions: 1 mM ATP; CDK2/Cyclin E1 0.25 nM; 60 minutes at room temperature
Protocol: Example A. CDK2/Cyclin E1 HTRF Enzyme Activity Assay
CDK2/Cyclin E1 enzyme activity assays utilize full-length human CDK2 co-expressed as N-terminal GST-tagged protein with FLAG-Cyclin E1 in a baculovirus expression system (Carna Product Number 04-165). Assays were conducted in white 384-well polystyrene plates in a final reaction volume of 8 μL. CDK2/Cyclin E1 (0.25 nM) was incubated with the compounds of the Examples (40 nL serially diluted in DMSO) in the presence of ATP (50 μM or 1 mM) and 50 nM ULight™-labeled eIF4E-binding protein 1 (THR37/46) peptide (PerkinElmer) in assay buffer (containing 50 mM HEPES pH 7.5, 1 mM EGTA, 10 mM MgCl2, 2 mM DTT, 0.05 mg/mL BSA, and 0.01% Tween 20) for 60 minutes at room temperature. The reactions were stopped by the addition of EDTA and Europium-labeled anti-phospho-4E-BP1 antibody (PerkinElmer), for a final concentration of 15 mM and 1.5 nM, respectively. HTRF signals were read after 1 hour at room temperature on a PHERAstar FS plate reader (BMG Labtech). Data was analyzed with IDBS XLFit and GraphPad Prism 5.0 software using a three or four parameter dose response curve to determine IC50 for each compound.

| Compound | IC50 [nM] |
| --- | --- |
| CS(=O)(=O)N1CCC(Nc2nc3c(Nc4ccccc4)c(-c4cn[nH]c4)ccn3n2)CC1 [Example 24, N^2-(1-(methylsulfonyl)piperidin-4-yl)-N^8-phenyl-7-(1H-pyrazol-4-yl)-[1,2,4]triazolo[1,5-a]pyridine-2,8-diamine] | ≤ 20 |
| CS(=O)(=O)N1CCC(Nc2nc3c(-c4ccc(F)cc4)c(-c4cn[nH]c4)ccn3n2)CC1 [Example 25, 8-(4-fluorophenyl)-N-(1-(methylsulfonyl)piperidin-4-yl)-7-(1H-pyrazol-4-yl)-[1,2,4]triazolo[1,5-a]pyridin-2-amine] | ≤ 20 |
| CS(=O)(=O)N1CCC(Nc2nc3c(-c4cccc(C(F)(F)F)c4)c(-c4cn[nH]c4)ccn3n2)CC1 [Example 26, N-(1-(methylsulfonyl)piperidin-4-yl)-7-(1H-pyrazol-4-yl)-8-(3-(trifluoromethyl)phenyl)-[1,2,4]triazolo[1,5-a]pyridin-2-amine] | ≤ 20 |
| CCOc1c(-c2cn[nH]c2)ccn2nc(N[C@H]3CCN(S(=O)(=O)CCCN4CCCCC4)C[C@H]3C)nc12 [Example 27, 8-ethoxy-N-((3R,4S)-3-methyl-1-((3-(piperidin-1-yl)propyl)sulfonyl)piperidin-4-yl)-7-(1H-pyrazol-4-yl)-[1,2,4]triazolo[1,5-a]pyridin-2-amine] | ≤ 20 |
| CCOc1c(-c2cn[nH]c2)ccn2nc(N[C@H]3CCN(S(=O)(=O)CCCN4CCCC4)C[C@H]3C)nc12 [Example 29, 8-ethoxy-N-((3R,4S)-3-methyl-1-((3-(pyrrolidin-1-yl)propyl)sulfonyl)piperidin-4-yl)-7-(1H-pyrazol-4-yl)-[1,2,4]triazolo[1,5-a]pyridin-2-amine] | ≤ 20 |
| CS(=O)(=O)N1CCC(Nc2nc3c(N4CCC(C(F)(F)F)CC4)c(-c4cn[nH]c4)ccn3n2)CC1 [Example 30, N-(1-(methylsulfonyl)piperidin-4-yl)-7-(1H-pyrazol-4-yl)-8-(4-(trifluoromethyl)piperidin-1-yl)-[1,2,4]triazolo[1,5-a]pyridin-2-amine] | ≤ 20 |
| CS(=O)(=O)N1CCC(Nc2nc3c(N4CCCC(F)C4)c(-c4cn[nH]c4)ccn3n2)CC1 (stereo not shown) [Example 31, 8-(3-fluoropiperidin-1-yl)-N-(1-(methylsulfonyl)piperidin-4-yl)-7-(1H-pyrazol-4-yl)-[1,2,4]triazolo[1,5-a]pyridin-2-amine] | ≤ 20 |
| CC1CCN(c2c(-c3cn[nH]c3)ncn3nc(NC4CCN(S(C)(=O)=O)CC4)nc23)CC1 [Example 34, 8-(4-methylpiperidin-1-yl)-N-(1-(methylsulfonyl)piperidin-4-yl)-7-(1H-pyrazol-4-yl)-[1,2,4]triazolo[1,5-c]pyrimidin-2-amine] | ≤ 20 |
| CS(=O)(=O)N1CCC(Nc2nc3c(-c4cccc(C(F)(F)F)c4)c(-c4cn[nH]c4)ncn3n2)CC1 [Example 35, N-(1-(methylsulfonyl)piperidin-4-yl)-7-(1H-pyrazol-4-yl)-8-(3-(trifluoromethyl)phenyl)-[1,2,4]triazolo[1,5-c]pyrimidin-2-amine] | ≤ 20 |
| CS(=O)(=O)N1CCC(Nc2nc3c(-c4ccc(C#N)c(F)c4)c(-c4cn[nH]c4)ncn3n2)CC1 [Example 36, 2-fluoro-4-(2-((1-(methylsulfonyl)piperidin-4-yl)amino)-7-(1H-pyrazol-4-yl)-[1,2,4]triazolo[1,5-c]pyrimidin-8-yl)benzonitrile] | ≤ 20 |
| CCCc1c(-c2cn[nH]c2)ccn2nc(NC3CCN(S(C)(=O)=O)CC3)nc12 [Example 37, N-(1-(methylsulfonyl)piperidin-4-yl)-8-propyl-7-(1H-pyrazol-4-yl)-[1.2.4]triazolo[1,5-a]pyridin-2-amine] | ≤ 20 |
| CC(C)COc1c(-c2cn[nH]c2)ncn2nc(NC3CCN(S(C)(=O)=O)CC3)nc12 [Example 44, 8-Isobutoxy-N-(1-(methylsulfonyl)piperidin-4-yl)-7-(1H-pyrazol-4-yl)-[1,2,4]triazolo[1,5-c]pyrimidin-2-amine] | ≤ 20 |

Next, values leading:

| IC50 [nM] | Compound |
| --- | --- |
| ≤ 20 | CCOc1c(-c2cn[nH]c2)ccn2nc(N[C@H]3CCN(S(=O)(=O)CCCN(C)C)C[C@H]3C)nc12 [Example 28, N-((3R,4S)-1-((3-(dimethylamino)propyl)sulfonyl)-3-methylpiperidin-4-yl)-8-ethoxy-7-(1H-pyrazol-4-yl)-[1,2,4]triazolo[1,5-a]pyridin-2-amine] |
| ≤ 20 | CCOc1c(-c2cn[nH]c2)ncn2nc(NC3CCN(S(C)(=O)=O)CC3)nc12 [Example 32, 8-Ethoxy-N-(1-(methylsulfonyl)piperidin-4-yl)-7-(1H-pyrazol-4-yl)-[1,2,4]triazolo[1,5-c]pyrimidin-2-amine] |
| ≤ 20 | CC(C)Oc1c(-c2cn[nH]c2)ncn2nc(N[C@H]3CCN(S(C)(=O)=O)C[C@H]3C)nc12 [Example 33, 8-isopropoxy-N-((3R,4S)-3-methyl-1-(methylsulfonyl)piperidin-4-yl)-7-(1H-pyrazol-4-yl)-[1,2,4]triazolo[1,5-c]pyrimidin-2-amine] |
| ≤ 20 | CC(C)Oc1c(-c2cn[nH]c2)ncn2nc(N[C@H]3CCN(S(=O)(=O)CCN4CCCC4)C[C@H]3C)nc12 [Example 38, 8-isopropoxy-N-((3R,4S)-3-methyl-1-((2-(pyrrolidin-1-yl)ethyl)sulfonyl)piperidin-4-yl)-7-(1H-pyrazol-4-yl)-[1,2,4]triazolo[1,5-c]pyrimidin-2-amine] |
| ≤ 20 | C[C@@H]1CN(S(C)(=O)=O)CC[C@@H]1Nc1nc2c(OC3CCC(F)(F)CC3)c(-c3cn[nH]c3)ccn2n1 [Example 39, 8-((4,4-difluorocyclohexyl)oxy)-N-((3R,4S)-3-methyl-1-(methylsulfonyl)piperidin-4-yl)-7-(1H-pyrazol-4-yl)-[1,2,4]triazolo[1,5-a]pyridin-2-amine] |
| ≤ 20 | C[C@@H]1CN(S(C)(=O)=O)CC[C@@H]1Nc1nc2c(OC3CCOC3)c(-c3cn[nH]c3)ccn2n1 (stereo partly drawn) [Example 40, N-((3R,4S)-3-methyl-1-(methylsulfonyl)piperidin-4-yl)-7-(1H-pyrazol-4-yl)-8-((tetrahydrofuran-3-yl)oxy)-[1,2,4]triazolo[1,5-a]pyridin-2-amine] |
| ≤ 20 | [2H]C([2H])([2H])C([2H])([2H])Oc1c(-c2cn[nH]c2)ccn2nc(N[C@H]3CCN(S(C)(=O)=O)C[C@H]3C)nc12 [Example 41, 8-(ethoxy-d5)-N-((3R,4S)-3-methyl-1-(methylsulfonyl)piperidin-4-yl)-7-(1H-pyrazol-4-yl)-[1,2,4]triazolo[1,5-a]pyridin-2-amine] |
| ≤ 20 | C[C@@H]1CN(S(C)(=O)=O)CC[C@@H]1Nc1nc2c(OC3CCOCC3)c(-c3cn[nH]c3)ccn2n1 [Example 42, N-((3R,4S)-3-methyl-1-(methylsulfonyl)piperidin-4-yl)-7-(1H-pyrazol-4-yl)-8-((tetrahydro-2H-pyran-4-yl)oxy)-[1,2,4]triazolo[1,5-a]pyridin-2-amine] |
| ≤ 20 | CC(C)Oc1c(-c2cn[nH]c2)ccn2nc(N[C@H]3CCN(S(C)(=O)=O)C[C@H]3C)nc12 [Example 43, 8-isopropoxy-N-((3R,4S)-3-methyl-1-(methylsulfonyl)piperidin-4-yl)-7-(1H-pyrazol-4-yl)-[1,2,4]triazolo[1,5-a]pyridin-2-amine] |
| ≤ 20 | CS(=O)(=O)N1CCC(Nc2nc3c(OCC(F)F)c(-c4cn[nH]c4)ncn3n2)CC1 [Example 45, 8-(2,2-difluoroethoxy)-N-(1-(methylsulfonyl)piperidin-4-yl)-7-(1H-pyrazol-4-yl)-[1,2,4]triazolo[1,5-c]pyrimidin-2-amine] |
